Values joined by “and” are separate entries in the source; they are usually repeats but may differ in a detail not shown here. Identical values can stand only once.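 Tested at 5 concentrations; 48 h exposure; 96-well plates; endpoints linearly interpolated, else capped at highest concentration. GI50: concentration for 50% inhibition of growth. TGI marks complete inhibition of growth.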

Holding throughout (assay): inhibition of tumour cell growth, NCI panel, 48 h
Assay [1] concerns T-47D breast.
Assay [2] relates to HCC-2998 colon.
Assay [3] has as its system OVCAR-8 ovarian.
Assay [4] deals with KM20L2 colon.
Assay [5] relates to SW-620 colon.
In assay [6] the test system is M14 melanoma.
Assay [7] deals with MOLT-4 leukemia.
The subject of assay [8] is DU-145 prostate.
In assay [9] the test system is NCI-H522 lung.
The test system of assay [10] is DMS 273 small cell lung.

In the case of `CC[C@H](C)C(=O)O[C@H]1C[C@@H](C)C=C2C=C[C@H](C)[C@H](CC[C@@H]3C[C@@H](O)CC(=O)O3)[C@H]21`, the GI50 in [1] is 32.5 µM and 19.6 µM; in assay [2], 26.3 µM and 25.1 µM; in assay [3], 2.96 µM and 6.79 µM; in assay [5], 10 µM and 10.1 µM; in assay [6] it was 6.25 µM and 7.89 µM; in assay [7], 49.2 µM and 21.4 µM. For the same molecule, the GI50 in assay [8] is 43.8 µM and 35.5 µM; in [9], 1.98 µM and 1.66 µM. Moreover, the TGI in assay [1] was above 100 µM; in [2], above 100 µM; in assay [3], above 100 µM; in assay [4], above 30 µM; in [5], above 100 µM; in assay [6], above 100 µM. Also, the TGI is > 100 µM and 53.4 µM and > 30 µM in [7]; above 100 µM in assay [8]; 8.53 µM and 22.3 µM in assay [9]; above 30 µM in [10].
With `COc1ccccc1C(=O)Nc1ccc(Cl)c(C(=O)OC(C)C)c1`, the TGI in [1] is 60.1 µM; in [2], above 100 µM; in assay [3], above 100 µM; in assay [4], above 100 µM; in [5] it was above 100 µM; in assay [6] it was above 93.3 µM. Also, the TGI in assay [7] is above 76.5 µM; in [8] it was above 100 µM; in assay [9] it was above 81.4 µM; in [10], above 100 µM.
For `NC(=O)/C=C/c1c[nH]c2nccnc12`, the TGI in [1] was 23.5 µM; in assay [2] it was 5.28 µM; in [3], above 87.5 µM; in assay [4], 1.35 µM; in assay [5], 10.5 µM; in assay [6] it was 30.5 µM. Also, the TGI in [7] is 1.38 µM; in [8], above 34 µM; in assay [9], 45.9 µM; in [10] it was 10.5 µM.

For the origin of these results see PubChem BioAssay (NCI).
